This is an account of results in patent US6653442B1, “Protegrins” (priority 1993, dated 2003).

Bridge positions count the residues as written; N and C are the ends. Peptide text beside a SMILES is read from it.

The subject of one data set is E. coli ML-35P. Kind of data set: Radial diffusion assay in agarose gels, E. coli. In kind it is cell-based.
The next data set deals with C. albicans, strain 820. In kind it is cell-based, Candida albicans.
Data set [1] can be described thus: Radial diffusion assay in 25 mM borate buffer (Table 4). Conditions: buffer (25 mM borate buffer, pH 7.4). Format: cell-based. As for the experimental part: Contact lens solutions are typically formulated with borate buffered physiological saline and may or may not contain EDTA in addition. Protegrins in the form of the synthetic PG-3 amide and synthetic PG acid were tested generally in the assay described in Example 1 wherein all underlay gels contain 25 mM borate buffer, pH […] tryptocase soy broth ([…] TSB powder) and […]. Additions included either 100 mM NaCl, 1 mM EDTA or a combination thereof. Other test compounds used as controls were the defensin NP-1 and lysozyme. Dose response curves were determined.

For the next data set, the system named is Candida albicans. Kind of data set: Radial diffusion assay in 25 mM borate buffer, Candida albicans. Format: cell-based.
For the next data set, the system named is L. monocytogenes. Kind of data set: Radial diffusion assay in 25 mM borate buffer, L. monocytogenes. In kind it is cell-based.
Data set [2] can be described thus: Autoclaving, retained antimicrobial activity. In kind it is physicochemical. Conditions: autoclaved.
The subject of data set [3] is lipid polysaccharide (LPS) of E. coli strain 0.55B5. In words: Limulus amebocyte lysate (LAL) test for endotoxin binding. Format: biochemical.
The subject of data set [4] is N. gonorrhoeae strains FA 19 and F 62. Particulars: for log reduction in CFU per ml: strains FA 19 and F 62.
Method: Nonpiliated transparent variants of strains FA 19 and F 62 were propagated on GCB agar plates containing glucose and iron supplements overnight at 37° C. under 3.8% V/V CO2. These strains were chosen for their adaptability to the assay.
The overnight growth is removed from the agar plate and suspended in GCB broth containing supplements and sodium bicarbonate and grown with shaking at 37° C. to mid log phase. The culture is diluted 1:100 in GCB broth to give about 10^6 CFU/ml and serial dilutions were plated onto GCB agar.
Ten μl of each dilution is added to a sterile polystyrene tube containing 90 μl of diluted bacteria and the tubes are shaken at 37° C. for 45 minutes. The contents are serially diluted 1:10 and plated on to GCB agar plates which are incubated in a CO2 incubator. CFU are counted after 24 hours and the log bactericidal activity calculated.
Data set [5] relates to E. coli ML-35 (serum sensitive). Kind of data set: Underlay gel assay with and without normal human serum, E. coli ML-35. Format: cell-based. Particulars: 10 mM sodium phosphate buffer, pH 7.4.
Data set [6] has as its system Listeria monocytogenes, strain EGD. Kind of data set: Radial diffusion assay in agarose gels, L. monocytogenes. Format: cell-based. Conditions: radial diffusion, underlay agar pH 6.5. As to the method: Aliquots (66 μl) of each fraction were dried by vacuum centrifugation and resuspended in 6.6 μl of 0.01% acetic acid. Five μl samples of this concentrate were tested for antimicrobial activity against E. coliML-3, L. monocytogenes, strain EGD and C. albicans, strain 820, using radiodiffusion and gel overlay techniques as described by Lehrer, R. I. et al. J Immunol Meth (1991) 137:167-173. […] The units of activity in the radial diffusion assay were measured as described; 10 units correspond to a 1 mm diameter clear zone around the sample well. Activity was found in a large number of fractions.
The radial diffusion assay in agarose gels described in Example 1 was also used to test the activity of the purified protegrins. FIGS. 4a, 4b and 4c show the results against three test organisms in units described as above.
The antimicrobial activity of the linearalized forms was also compared with that of the native protegrins. Both linearalized and cyclic forms of the protegrins tested continue to show antimicrobial activity, although the effectiveness of these peptides as antimicrobials depends on the nature of the target organism and on the test conditions. The antimicrobial activity of native PG-1 and its linearalized form (cam-PG-1) and PG-3 and its linearalized form (cam-PG-3) were tested according to the procedure set forth in Example 1 as described by Lehrer, R. I. et al. J Immunol Meth (1991) 137:167-173.
Using standard solid phase techniques, a protegrin having the amino acid sequence of PG-1, but wherein every amino acid is in the D form was prepared. This form of protegrin was tested against E. coli, L. monocytogenes, C. albicans and other microbes in the absence and presence of protease and otherwise as described for the radiodiffusion assay in agarose gels set forth in Example 1.
The kite and bullet PG-1 compounds prepared in Example 12 were tested for antimicrobial activity using the radial diffusion assay described in Example 1 as published by Lehrer, R. I. et al., J Immunol Meth (1991) 137:167-173, except that the underlay agars contained […] sodium phosphate buffer with a final pH of 7.4. As described in Example 1, 0.3 mg/ml tripticase soy broth powder and 1% agarose were used as well in the underlay agar. In some cases 100 mM NaCl or RPMI plus 2.5% normal human serum (NHS) was added to the agar.

For another data set, the system named is HIVJR-CSF and HIVJR-FL. In words: HIV infection of human peripheral blood mononuclear cells, p24 antigen.
[7] abbreviates: 2.5 μg peptide in 0.2 ml, LPS 0.05 endotoxin unit/ml.
Setting [8] is: 5 μg peptide in 0.2 ml, LPS 0.05 endotoxin unit/ml.
Setting [9] is: 10 μg peptide in 0.2 ml, LPS 0.05 endotoxin unit/ml.
[10] abbreviates: radial diffusion, underlay agar pH 6.5.

Method for C. albicans, strain 820: Similarly, using C. albicans as a target organism, underlayers were prepared with 10 mM sodium phosphate with and without 10% normal human serum.
Method for E. coli ML-35P: Aliquots (66 μl) of each fraction were dried by vacuum centrifugation and resuspended in 6.6 μl of 0.01% acetic acid. […] The units of activity in the radial diffusion assay were measured as described; 10 units correspond to a 1 mm diameter clear zone around the sample well.
Method for HIVJR-CSF and HIVJR-FL: Briefly, the mononuclear cell fraction is recovered from normal donor leukopacs from the American Red Cross using a Ficoll-hypaque density gradient. The mononuclear cells are resuspended at 1×10^6 cells per ml in RPMI 1640 medium with 20% fetal bovine serum, 1% penn/strep with fungizone and 0.5% PHA and incubated 24 hours at 37° C. in 5% CO2. The cells are centrifuged, washed and then expanded for 24 hours in growth medium.
Non-laboratory adapted, cloned HIVJR-CSF and HIVJR-FL were electroporated into the human peripheral blood mononuclear cells prepared as described above. Titers were determined and in general, multiplicities of infection (MOI) of about 4,000 infectious units per cell are used (which corresponds to 25-40 picograms per ml HIV p24 antigen in the supernatant).
In the assay, the HIV stocks prepared as above were diluted to the correct MOI and the PBM are added to 24 well plates at a concentration of 2×10^6 per ml. One μl total volume is added to each well. The peptide to be tested is added in growth medium to achieve the final desired concentration. Then the appropriate number of MOI are added. To assay viral growth, 200 μl of supernatant is removed on days 3 and 7 and the concentration of p24 antigen is determined using a commercial assay (Coulter Immunology, Hialeah, Fla.). Controls include duplicate wells containing cells alone, cells plus peptide at 5 μg/ml cells with virus but not peptide and cells with virus in the presence of AZT at 10^−5 M-10^−8 M.

As to `CC[C@H](C)[C@@H]1NC(=O)[C@H](CCCNC(=N)N)NC(=O)[C@@H]2CSSC[C@@H]3NC(=O)[C@H](C)NC(=O)[C@@H](NC(=O)[C@@H](NC(=O)[C@@H](N)C(C)C)C(C)C)CSSC[C@@H](C(=O)N[C@@H](CCCNC(=N)N)C(=O)N[C@@H](CCCNC(=N)N)C(=O)O)NC(=O)[C@H](CSSC[C@H](NC(=O)[C@H](CC(C)C)NC(=O)[C@H](C)NC(=O)[C@H](CCCNC(=N)N)NC(=O)[C@H](CCCNC(=N)N)NC3=O)C(=O)N[C@@H](CC(C)C)C(=O)N3CCC[C@H]3C(=O)N[C@@H](CCCNC(=N)N)C(=O)N[C@@H](CCC(=O)O)C(=O)N[C@@H](CCCNC(=N)N)C(=O)N[C@@H](CCCNC(=N)N)C(=O)N[C@@H](C)C(=O)NCC(=O)N[C@@H](Cc3ccccc3)C(=O)N2)NC(=O)[C@H](CC(C)C)NC(=O)[C@@H]2CCCN2C(=O)[C@H](Cc2c[nH]cn2)NC(=O)[C@H]([C@@H](C)CC)NC(=O)[C@H](CCCNC(=N)N)NC(=O)CNC(=O)[C@H](CCCNC(=N)N)NC1=O` [NP-1, reference compound] (H-VVCACRRALCLPRERRAGFCRIRGRIHPLCCRR-OH; disulfide 3-31, 5-20, 10-30; N-terminus and C-terminus assumed), the “activity against E. coli in NaCl (FIG. 5b)” value in the data set with E. coli ML-35P (in the presence of 100 mM NaCl) is reported as “Neither NP-1 nor HNP-1 have this property”. For the same compound, the “activity against Candida albicans in fetal calf serum (FIG. 5c)” value with C. albicans, strain 820 (90% fetal calf serum) is on record as “lose their ability to inactivate C. albicans”. In the data set on C. albicans, strain 820 (in the presence of 100 mM NaCl), the “activity against C. albicans in NaCl (FIG. 5a)” value is given as “Neither NP-1 nor HNP-1 have this property”. Also, the “ESTIMATED MINIMAL FUNGICIDAL CONCENTRATIONS” value in [1] was 35.0 µg/mL; in the data set on Candida albicans (25 mM borate buffer), 23.0 µg/mL; with Candida albicans (borate buffer + 120 mM NaCl), 60.0 µg/mL; in the data set with Candida albicans (borate buffer + EDTA & NaCl) it was 65.0 µg/mL. Also, the “ESTIMATED MINIMAL BACTERICIDAL CONCENTRATIONS” value in the data set on L. monocytogenes (25 mM borate buffer) was 20.0 µg/mL; with L. monocytogenes (borate buffer + 120 mM NaCl), 11.0 µg/mL; in the data set with L. monocytogenes (borate buffer + EDTA & NaCl), 3.8 µg/mL.
`CC(C)C[C@H](NC(=O)CNC(=O)CNC(=O)CNC(=O)[C@@H](N)CCCNC(=N)N)C(=O)N[C@H]1CSSC[C@@H](C(=O)N[C@H](C(=O)NCC(=O)N[C@@H](CCCNC(=N)N)C(=O)O)C(C)C)NC(=O)[C@H](C(C)C)NC(=O)[C@@H]2CSSC[C@H](NC(=O)[C@H](Cc3ccc(O)cc3)NC1=O)C(=O)N[C@@H](CCCNC(=N)N)C(=O)N[C@@H](CCCNC(=N)N)C(=O)N[C@@H](CCCNC(=N)N)C(=O)N[C@@H](Cc1ccccc1)C(=O)N2` [sPG-3 acid] (H-RGGGLCYCRRRFCVCVGR-OH; disulfide 6-15, 8-13; N-terminus assumed): in [2], the “antimicrobial activity against E. coli, L. monocytogenes and C. albicans after autoclaving” value was “retaining full antimicrobial activity in all cases”. For the same compound, the “gel formation in LAL test” value in data set [3] (setting [7]) was “trace”; in [3] (setting [8]), “no gel”; in [3] (setting [9]) it was “no gel”. The “ESTIMATED MINIMAL FUNGICIDAL CONCENTRATIONS” value is 15.0 µg/mL in data set [1], 19.0 µg/mL in the data set on Candida albicans (25 mM borate buffer), 9.2 µg/mL in the data set with Candida albicans (borate buffer + 120 mM NaCl) and 9.3 µg/mL in the data set with Candida albicans (borate buffer + EDTA & NaCl). The “ESTIMATED MINIMAL BACTERICIDAL CONCENTRATIONS” value in the data set on L. monocytogenes (25 mM borate buffer) was 30.0 µg/mL; with L. monocytogenes (borate buffer + 120 mM NaCl), 7.0 µg/mL; in the data set on L. monocytogenes (borate buffer + EDTA & NaCl) it was 7.0 µg/mL. Besides, the “log reduction in CFU per ml” value in data set [4] is > 5 log.
Take `CC(C)C[C@H](NC(=O)CNC(=O)CNC(=O)CNC(=O)[C@@H](N)CCCNC(=N)N)C(=O)N[C@H]1CSSC[C@@H](C(=O)N[C@H](C(=O)NCC(=O)N[C@@H](CCCNC(=N)N)C(N)=O)C(C)C)NC(=O)[C@H](C(C)C)NC(=O)[C@@H]2CSSC[C@H](NC(=O)[C@H](Cc3ccc(O)cc3)NC1=O)C(=O)N[C@@H](CCCNC(=N)N)C(=O)N[C@@H](CCCNC(=N)N)C(=O)N[C@@H](CCCNC(=N)N)C(=O)N[C@@H](Cc1ccccc1)C(=O)N2` [sPG-3 amide] (H-RGGGLCYCRRRFCVCVGR-NH2; disulfide 6-15, 8-13; N-terminus assumed): the “antimicrobial activity against E. coli, L. monocytogenes and C. albicans after autoclaving” value in data set [2] was “retaining full antimicrobial activity in all cases”. Besides, the “gel formation in LAL test” value is listed as “no gel” in [3] (0.5 μg peptide, 0.05 E.U.); “no gel” in [3] (1.0 μg peptide, 0.05 E.U.); “no gel” in data set [3] (1.0 μg peptide, 0.10 E.U.); “no gel” in data set [3] (1.0 μg peptide, 0.25 E.U.); “no gel” in data set [3] (setting [7]); “no gel” in data set [3] (2.5 μg peptide, 0.05 E.U.). For the same compound, the “gel formation in LAL test” value in [3] (2.5 μg peptide, 0.10 E.U.) is “no gel”; in data set [3] (2.5 μg peptide, 0.25 E.U.), “no gel”. The “ESTIMATED MINIMAL FUNGICIDAL CONCENTRATIONS” value in [1] was 13.0 µg/mL; with Candida albicans (25 mM borate buffer), 19.0 µg/mL; with Candida albicans (borate buffer + 120 mM NaCl), 7.7 µg/mL; in the data set with Candida albicans (borate buffer + EDTA & NaCl), 7.0 µg/mL. The results for the “ESTIMATED MINIMAL BACTERICIDAL CONCENTRATIONS” value in the data set on L. monocytogenes (25 mM borate buffer), in the data set on L. monocytogenes (borate buffer + 120 mM NaCl) and in the data set on L. monocytogenes (borate buffer + EDTA & NaCl) were 21.0 µg/mL, 5.7 µg/mL and 5.2 µg/mL, respectively. Moreover, the “log reduction in CFU per ml” value in data set [4] is on record as > 5 log.
Consider `CC(C)C[C@H](NC(=O)[C@H](CCCNC(=N)N)NC(=O)CNC(=O)CNC(=O)[C@@H](N)CCCNC(=N)N)C(=O)N[C@H]1CSSC[C@@H](C(=O)N[C@H](C(=O)NCC(=O)N[C@@H](CCCNC(=N)N)C(N)=O)C(C)C)NC(=O)[C@H](C(C)C)NC(=O)[C@@H]2CSSC[C@H](NC(=O)[C@H](Cc3ccc(O)cc3)NC1=O)C(=O)N[C@@H](CCCNC(=N)N)C(=O)N[C@@H](CCCNC(=N)N)C(=O)N[C@@H](CCCNC(=N)N)C(=O)N[C@@H](Cc1ccccc1)C(=O)N2` [synthetic PG-1], for which the values for the minimal bacteriocidal concentration entry in data set [5] (absence of serum) and in data set [5] (presence of […] normal human serum) were “approximately 1.0 μg/ml” and “about 0.1 μg/ml”, respectively.
“R-G-G-R-L-C-Y-C-R-R-R-F-C-I-C-V (RGGRLCYCRRRFCICV) [PG-2]”: in the data set on E. coli ML-35P (setting [10]), the “antibacterial activity against E. coli (FIG. 4a)” value is given as “effective against the three organisms tested but was not as active as the other two peptides”. The “antibacterial activity against Listeria monocytogenes (FIG. 4b)” value in [6] is listed as “effective against the three organisms tested but was not as active as the other two peptides”. Further, the “antifungal activity against Candida albicans (FIG. 4c)” value in the data set with C. albicans, strain 820 (setting [10]) is recorded as “effective against the three organisms tested but was not as active as the other two peptides”. Besides, the “gel formation in LAL test” value was “no gel” in [3] (1.0 μg peptide in 0.2 ml, LPS 0.05 endotoxin unit/ml); “no gel” in [3] (setting [7]); “no gel” in [3] (setting [8]); “no gel” in [3] (setting [9]). Moreover, the “reduction in CFU per ml” value in [4] (45 minutes at 37° C.) is on record as 2.6 fold. In the data set with HIVJR-CSF and HIVJR-FL, the “anti-HIV activity level relative to PG-1” value is given as “approximately 5 fold less”.
As for lysozyme [reference compound], the “ESTIMATED MINIMAL FUNGICIDAL CONCENTRATIONS” value in data set [1] is 75.0 µg/mL.
